Measurements: patent US9132108B2, “Pharmaceutical composition for ameliorating and/or preventing leptin resistance, and use thereof” (HIROSHIMA UNIVERSITY, priority 2009, dated 2015)

Tests used:
Format in all cases: in vivo, mouse
[1] = test system: plasma leptin levels; assay: Plasma leptin levels by ELISA before and after fasting (Example 3); conditions: Group 4 (high-fat diet+flurbiprofen) vs Group 2, approximately 10 mg/kg per day orally, 8 weeks
Description: 4 weeks-old male mice (C57BL/6 Cr Slc) had been given normal diet (10 kcal % fat, D12450B, produced by Research Diets, Inc.) or high-fat diet (60 kcal % fat, D12492, produced by Research Diets, Inc.). Flurbiprofen was diluted with drinking water so that the administration amount of flurbiprofen would be approximately 10 mg/kg per day, and was orally administered to the mice in the form of drinking water. Specifically, mice were divided into four groups each consisting of 7-8 mice. Mice of individual groups were given diets as follows. • Group 1: Normal diet (10 kcal % fat) only • Group 2: High-fat diet (60 kcal % fat) only • Group 3: Normal diet+flurbiprofen • Group 4: High-fat diet+flurbiprofen 20-25 μL of blood samples before or after fasting for 28-29.5 hours were obtained from mice via tail vein, which had been given high-fat diet or normal diet for 8 weeks. […] Plasma leptin levels in the supernatants obtained by the centrifugation were measured by ELISA. […] Values in the graph of (a) of FIG. 6 are averages of plasma leptin levels of mice of each group measured before fasting (± their standard deviations) (n=7-8 with respect to each group). Similarly, values in the graph of (b) of FIG. 6 are averages of plasma leptin levels of mice of each group measured after fasting (± their standard deviations) (n=7-8 with respect to each group). […]

[2] = test system: mice; assay: Body length of mice after flurbiprofen administration (Example 10); conditions: flurbiprofen-administered group vs control group; 3 mg/kg per day orally, 3 weeks
Description: Similarly with Example 8, 4 weeks-old male mice (C57BL/6 Cr Slc) had been given high-fat diet for 6 months so that leptin resistance would be induced in the mice. Thereafter, the mice were divided into two groups (each consisting of 8 mice), and the mice of individual groups were given the following diets for 3 weeks. • Control group (Cont): normal diet (10 kcal % fat) only • Flurbiprofen-administered group (Ful): normal diet+flurbiprofen Flurbiprofen (F8514, produced by SIGMA) was diluted with drinking water so that the administration amount of flurbiprofen would be 3 mg/kg per day, and was orally administered to the mice in the form of drinking water. The result of measurement of body length of the mice, to which flurbiprofen had been administered for 3 weeks, is shown in FIG. 16. FIG. 16 is a graph showing the body length (cm) of the mice of the control group and the mice of the flurbiprofen-administered group which had been given normal diet for 3 weeks. Values in the graph of FIG. 16 are averages of body lengths (cm) of mice of each group (± their standard deviations) (n=8 with respect to each group). Further, statistic analysis was carried out using t-test.

[3] = test system: mice; assay: Open Field Test, amounts of mice activity (Example 6); conditions: Group 3 or 4 (flurbiprofen) vs Group 1 or 2 (no flurbiprofen); 10 mg/kg per day orally, 8 weeks
Description: In order to measure the amounts of mice activity, an Open Field Test was carried out. Specifically, 4 weeks-old male mice (C57BL/6 Cr Slc) were divided into four groups each consisting of 15-16 mice. Mice of individual groups were given diets as follows for 8 weeks similarly with Example 5. • Group 1: Normal diet (10 kcal % fat) only • Group 2: High-fat diet (60 kcal % fat) only • Group 3: Normal diet+flurbiprofen • Group 4: High-fat diet+flurbiprofen
Flurbiprofen (F8514, produced by SIGMA) was diluted with drinking water so that the administration amount of flurbiprofen would be 10 mg/kg per day, and was orally administered to the mice in the form of drinking water.
The mice raised for 8 weeks with high-fat diet or normal diet were subjected to the Open Field Test.
The Open Field Test is a test in which mice were put at the center of a square field (48×48 cm) and the amounts of activity of the mice in the new environment were measured in numerals. Specifically, with respect to each of the mice, the amount of activity per 5 minutes was measured using a locomotor activity measuring device (SCANET MV-10MT, produced by Toyo Sangyo Co., Ltd.). The measurements were performed between 16:30 and 17:30 which was a time before feeding behavior of the mice would become active. […]

[4] = test system: mice given high-fat diet for 6 months (leptin resistance); assay: Body weight of leptin-resistant mice (6 months high-fat diet), therapeutic effect (Example 8); conditions: 3 mg/kg per day orally
Source text: In Example 8, effectiveness of flurbiprofen in ameliorating leptin resistance was confirmed by measuring a change in body weight of mice as a reference index. Specifically, 4 weeks-old male mice (C57BL/6 Cr Slc) had been given high-fat diet for 6 months so that leptin resistance would be induced in the mice. Thereafter, the mice were divided into two groups (each consisting of 14 mice), and the mice of individual groups were given the following diets for 3 weeks. • Control group (Cont): normal diet (10 kcal % fat) only • Flurbiprofen-administered group (Ful): normal diet+flurbiprofen Flurbiprofen (F8514, produced by SIGMA) was diluted with drinking water so that the administration amount of flurbiprofen would be 3 mg/kg per day, and was orally administered to the mice in the form of drinking water. The rates of change in body weight of the mice of individual groups were measured with the date when administration of flurbiprofen started (0 week) as a reference. Further, the amount of visceral fat (g) was measured. The visceral fat was extracted from abdomens of the mice and wet weight thereof was measured. FIGS. 13 and 14 show the result. FIG. 13 is a graph showing the rates of change in body weight of the mice of the control group and the mice of the flurbiprofen-administered group. […]

body length [2]: no significant difference in body length
SMILES: C[C@@H](C(=O)O)c1ccc(-c2ccccc2)c(F)c1 [flurbiprofen]
plasma leptin levels [1]: significantly lower plasma leptin levels
amounts of activity (locomotor activity, counts/5 min) [3]: no significant difference in the amounts of activity
time after administration at which the effect of ameliorating leptin resistance is observed ([4]; rate of change in body weight vs control group): 1 week
average body weight ([4]; 3 weeks after the administration of flurbiprofen, normal diet after 6 months high-fat diet, before administration 53.479±0.7804 g, control 48.371±0.6387 g, P<0.05): 45.543 ± 1.1103 g
